Series [1] deals with THLE-2. Nature of the series: Caspase-3 activity, THLE-2. Conditions: 1 mM for 3 hour. Type of series: cell-based. As to the method:
(§1) Caspase-3 activity and reduced cell viability was also measured in cell lines (HepG2, THLE-2, and VX2 cell lines) following 3-bromopyruvate treatment (1 mM for 3 hour) (FIG. 6A). Caspase-3 activity increased in each cell line following treatment and cell viability decreased following treatment. An increase in caspase-3 activity indicated the mechanism of cell death is apoptotic. FIGS. 6 B and C show cell viability is reduced in each cell line with increasing 3-bromopyruvate concentration after 1 and 3 hours of treatment.

Another series deals with rat mammary tumor (RMT). The series is described as follows: FDG uptake after IP injection in tumor bearing rats. It counts as in vivo. The text has this:
After having established the anti-glycolytic effect of 3-bromopyruvate in vitro, we designed a series of experiments to confirm this property in vivo. For this purpose, two different animal models, the Lewis rat mammary tumor model and the orthotopic VX2 rabbit liver cancer model were used. Since glucose uptake can be monitored using fluorine-labeled deoxyglucose (FDG), potential sites of decreased FDG uptake as a result of 3-bromopyruvate activity could be identified. The effects of intraperitonealy (IP) injected 3-bromopyruvate in non-tumor bearing rats were compared to those in tumor bearing rats. The tumors were derived from the rat mammary tumor (RMT) cell line and transplanted into the back adipose tissue of the rat and allowed to grow for 10 days. After having determined the maximum tolerated dose, all animals received two bolus doses (one hour apart) of 3-bromopyruvate injected IP. The FDG was injected 30 minutes after the first injection of 3-bromopyruvate and all animals were sacrificed 60 minutes after the FDG was injected. The tumors and all major organs were removed, weighed and analyzed in a gamma counter. […]

Series [2] has as its system liver implanted VX2 tumors. The series is described as follows: Systemic delivery via marginal ear vein, animals with liver implanted VX2 tumors. Type of series: in vivo, rabbit. To be noted: 25 ml, 0.5 mM via marginal ear vein. An excerpt:
Finally, it was important to examine the effect of 3-BrPA when delivered systemically (i.e., via the general circulation) on both animal toxicity and its capacity to damage liver implanted tumors.

The next series relates to VX2 tumor. The series is described as follows: Longitudinal survival studies in the VX2 rabbit model. Type of series: in vivo. An excerpt:
In a longitudinal study to investigate the effect of 3-bromopyruvate treatment in the VX2 rabbit model, it was observed that although the treated rabbits lived longer than the untreated ones (statistically significant), the treated rabbits were not cured of their tumors and died within weeks of treatment of massive tumor growth. The extremely aggressive nature of the VX2 tumor was not stopped by the treatment and the tumor re-grew despite the high initial percentage of cancer cell death. Further studies were thus needed to determine the optimal dose and method of infusion of 3-bromopyruvate to attain significant long-term survival, complete eradication of the tumor.
VX2 tumors are extremely aggressive and are rendered more aggressive and difficult to treat by the passage of this tumor from generation to generation (>100) in the thigh of a rabbit making each generation more virulent than the last. […] As described herein continuous intraarterial infusion of 1.7 mM 3-bromopyruvate is an effective and potent therapy for treating liver cancer.

For series [3], the system named is THLE-2. The series is described as follows: Cell viability, THLE-2. Type of series: cell-based. Conditions: 1 mM for 3 hour. As to the method: as §1
Series [4] concerns mitochondrial respiration of VX2 tumor mitochondria. The series is described as follows: Mitochondrial respiration (oxygen consumption, Clark electrode). Type of series: biochemical, rabbit. To be noted: 1.2 mM; basal (succinate) and ADP stimulated rate. As to the method:
The freshly isolated liver or VX2 tumor tissues (15-20 g wet weight) was rinsed in 3 volumes of H-medium (210 mM D-mannitol, 70 mM sucrose, 2 mM Hepes, and 0.05% bovine albumin, pH 7.4) at 4° C. and minced with a razor blade as finely as possible. A 30% (V/V) suspension was made using ice-cold H-medium in a Potter-Elvehjem glass homogenizer (55 ml capacity), and homogenization was achieved by applying 4 complete up and down strokes through the suspension with a rotating (˜400 rpm), serrated, teflon pestle attached to a motor. To remove cell debris and nuclei, the resultant homogenate was diluted to twice the initial volume and centrifuged at 630×g for 8 minutes at 4° C. in a Sorvall RC-2B centrifuge using a GSA rotor. The supernatant was removed and then centrifuged at 6,800 g for 15 min under the same conditions. The resultant supernatant was saved and referred to here as the cytosolic faction. […]
Oxygen consumption rates were measured polarographically using a Clark oxygen electrode inserted into a 2.5 ml chamber equipped with a magnetic stirrer. […] The loss of oxygen was monitored in a 2.1 ml system at 25° C. containing 1 mg mitochondria, 0.5 mM EDTA, 2.0 mM Hepes, 220 mM D-mannitol, 70 mM sucrose, 2.5 mM KPi, 2.6 mM MgCl2, and 0.5 mg/ml bovine albumin, and, where indicated, 7.8 mM succinate (respiratory substrate), and 0.24 mM ADP (ATP synthesis substrate). […]

The next series has as its system VX2. Nature of the series: Cell viability, VX2. It counts as cell-based, rabbit. Conditions: 1 mM for 3 hour. The protocol: as §1
The next series has as its system HepG2. Nature of the series: Cell viability, HepG2. Type of series: cell-based, human. Conditions: 1 mM for 3 hour. As to the method: as §1

Turning to `O=C(O)C(=O)CBr` [3-bromopyruvate], the Caspase-3 activity result with THLE-2 [1] was “increased”. For the same compound, the “FDG uptake in all other organs” value with rat mammary tumor (RMT) (two IP bolus doses) is reported as “unaffected”. Further, the “decrease in FDG uptake in the tumor” value with rat mammary tumor (RMT) (two IP bolus doses one hour apart) is given as 50%. In series [2], the animal behavior result was “normal behavior”. Moreover, the “effect on liver implanted VX2 tumors” value in series [2] is “no killing effect”. The “histological examination of 9 major tissues” value in series [2] (4 days) is recorded as “no obvious damage”. Besides, the “survival versus untreated rabbits” value with VX2 tumor (VX2 rabbit model, not cured, tumor re-grew) is listed as “lived longer”. Moreover, the “delay of tumor progression versus saline (IA) controls” value with VX2 tumor (animals with 100% tumor kill) came to 75%. Moreover, the cell viability result with THLE-2 [3], with VX2 and with HepG2 was “decreased” each time. The “inhibition of mitochondrial respiration” value in series [4] is given as “completely inhibits”.

These data come from patent publication US20100203110A1, “Therapeutics for Cancer Using 3-Bromopyruvate and Other Selective Inhibitors of ATP Production” (The Johns Hopkins University, priority 2006, published 2010).
